Test results taken from patent US8357671B2, “High affinity Siglec ligands” (priority 2005, dated 2013).
“And” between values parts separate entries of the source, which are not always exact repeats. Equal entries are not always repeated.

What was measured:
human CD22 = biological target: T1, human CD22 (Homo sapiens, UniProt P20273); assay: ELISA inhibition assay: CD22-Fc chimera binding to immobilized NeuAc-LN; conditions: for IC50: inhibition of CD22-Fc binding to immobilized NeuAcα2,6LacNAc, read-out: IC 50 value hCd22; for rIP hCd22 (relative inhibitory potency): relative to NeuAc-LN = 1
T1 construct: made in house
Method: (§1) FIG. 1A-B illustrate that sialosides with derivation at position 9 that includes a neutral core and a hydrophobic moiety are potent inhibitors for CD22. Similar inhibitors can be made by derivation at position 5. […] FIG. 1B graphically illustrates competitive inhibition of selected sialoside inhibitors. Inhibitors were added with soluble CD22-Fc chimeras to block the chimera binding to immobilized NeuAcα2-6Galβ1-4GlcNAc (NeuAc-LN, human CD22, hCD22) or NeuGcα2,6Galβ1-4GlcNAc (NeuGc-LN, mouse CD22, mCD22). Data are the average +/−S.D. of triplicate determinations and are representative of two individual assays.
(§2) ELISA inhibition assays: For inhibition assays, high binding 96 well microtiter plates (Corning Costar) were coated with neutravidin by incubation with 50 ul of 1 mg/ml Neutravidin (Pierce Biotechnology) in 50 mM Na bicarbonate pH 9.5 overnight at 4° C. The wells were then washed with PBS and blocked with PBS containing 5 mg/ml BSA for 1 hr at 37° C. Fifty microliters of a selected biotinylated sialoside (0.33 uM) was added to each well, and allowed to bind for 1 hr at room temperature. The sialoside was then allowed to bind for 1 hr at 37° C. and the wells were washed.
(§3) The CD22-Fc chimera employed was produced as described in Blixt et al. (J. Biol. Chem. 278: 31007-19 (2003)) and diluted to 0.1 mg/ml into HBSS (with 5 mg/ml BSA and 1 mM EDTA). An F(ab′)2 Fragment Goat anti-Human IgG (Jackson Immunoresearch) (0.066 mg/ml) was mixed and allowed to complex with Peroxidase conjugated F(AB′)2 Fragment Rabbit anti Goat F(ab′)2 specific (0.010 mg/ml) for 15 min. CD22-Fc (1.5 ml) was added to 1 ml of the pre-complexed solution and allowed to further associate with complexes in that solution for 15 min. The inhibitor of interest was diluted into HBSS. Twenty-five microliters of the inhibitor and 25 ul of the CD22Fc complex were added to each well and the plates were incubated for 30 min at 37° C. The plates were then washed 4 times with 200 ul of HBSS. Wells were developed with 50 ul of 1 mg/ml OPD (Sigma), 0.03% H2O2 in 50 mM phosphate/citrate, pH 5.0. The reaction was stopped with 50 ul of 2.5 M H2SO4 and the optical density at 450 nm (OD450) was measured.

mouse CD22 = biological target: T2, mouse CD22 (Mus musculus, UniProt P35329); assay: ELISA inhibition assay: CD22-Fc chimera binding to immobilized NeuGc-LN; conditions: for IC50: inhibition of CD22-Fc binding to immobilized NeuGcα2,6LacNAc, read-out: IC 50 value mCd22; for rIP mCd22 (relative inhibitory potency): relative to NeuGc-LN = 1
T2 construct: made in house
Method: as §1, §2, §3

[1] = biological target: T3, cell surface CD22 (hCD22) on Daudi cells (Homo sapiens, UniProt P20273); assay: Inhibition of NeuAc-LN-PAA probe binding to sialidase-treated Daudi cells; type: cell-based; conditions: inhibitor 10, 30, 200 uM
T3 construct: endogenous in cells; host or cells: Daudi cells (sialidase-treated)
T3 sequence (P20273 20-847): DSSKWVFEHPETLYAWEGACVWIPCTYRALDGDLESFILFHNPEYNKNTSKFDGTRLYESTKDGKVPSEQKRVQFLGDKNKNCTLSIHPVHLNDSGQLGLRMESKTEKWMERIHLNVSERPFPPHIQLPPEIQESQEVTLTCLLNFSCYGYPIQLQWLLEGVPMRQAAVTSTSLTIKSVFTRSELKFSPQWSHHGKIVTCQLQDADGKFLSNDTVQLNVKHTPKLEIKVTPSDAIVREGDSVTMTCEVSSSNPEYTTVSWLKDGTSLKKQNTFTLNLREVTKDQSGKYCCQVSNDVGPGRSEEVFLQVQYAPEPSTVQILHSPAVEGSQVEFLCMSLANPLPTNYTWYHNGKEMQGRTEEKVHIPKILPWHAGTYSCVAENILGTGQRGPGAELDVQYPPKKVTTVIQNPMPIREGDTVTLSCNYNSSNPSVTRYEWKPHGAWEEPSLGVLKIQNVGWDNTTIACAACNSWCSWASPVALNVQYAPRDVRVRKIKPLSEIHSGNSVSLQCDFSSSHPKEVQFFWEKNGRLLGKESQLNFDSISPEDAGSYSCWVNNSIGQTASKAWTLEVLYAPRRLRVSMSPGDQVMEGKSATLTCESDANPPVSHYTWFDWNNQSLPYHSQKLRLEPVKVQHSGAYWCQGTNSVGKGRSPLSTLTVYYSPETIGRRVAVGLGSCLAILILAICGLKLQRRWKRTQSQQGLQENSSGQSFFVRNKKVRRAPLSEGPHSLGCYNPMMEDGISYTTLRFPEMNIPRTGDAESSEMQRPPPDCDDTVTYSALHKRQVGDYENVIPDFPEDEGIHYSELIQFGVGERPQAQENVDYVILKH
Method: FIG. 2A-B illustrate inhibition of multivalent sialoside probe binding to cell surface CD22 by potent biphenyl (BP) derivatives. FIG. 2A provides the results for murine splenocytes. Murine splenocytes were mock-treated (grey shaded peak) or actually treated with A. ureafaciens sialidase to cleave sialic acid-containing glycans from cell surfaces and thereby ‘unmask’ surface CD22. The cells were then incubated with NeuGc-LN-PAA alone (rightmost Black line, where PAA refers to a polyacrylamide carrier) or in the presence of 5 uM (light line to the right of center), 200 uM (central grey line) or 2 mM (leftmost dark grey line) of the indicated inhibitor for 1.5 h on ice, then washed. Bound probe was detected with streptavidin-PE, and B cells stained with anti-B220. Data are for B220+ cells only. FIG. 2B provides results for Daudi Cells. […] Bound probe was detected with streptavidin-PE and measured by flow cytometry. […]
Inhibition of Probe-Binding to B cells by Sialic Acid Inhibitors. […] These “cis” glycan ligands can mask binding of sialic acid ligands provided in “trans.” After treatment with sialidase, inhibition of B cell binding by monovalent BPC-NeuAc-LN and BPA-NeuGc-LN was detected for multivalent polyacrylamide (PAA) sialoside probes derivatized with NeuAc-LN (hCD22) or NeuGc-LN (mCD22) (FIG. 2).

[2] = biological target: T4, CD22Fc chimeras (hCD22Fc) (Homo sapiens, UniProt P20273); assay: ELISA-type assay of IgM/NP-BPC/CD22 complex formation; type: binding
T4 construct: made in house; host or cells: COS cells
Method: FIG. 7A-7C illustrate a self-assembling B cell targeting complex as one aspect of the invention. […] CD22-Fc chimeras were immobilized onto protein A coated wells. After washing, the indicated amount of either NP, or NP-BPC was added along with the anti-NP IgM was added and allowed to bind for 30 min at room temperature. After washing, bound IgM was detected with HRP-conjugated anti-IgM and developed with OPD. Data are the average ±S.D. of triplicates, and are representative of 3 independent experiments.
ELISA-Type Assay. High Binding microtiter plates were coated with neutravidin (1 ug/50 ul/well in Na Bicarbonate pH 9.5) overnight at 4° C., then washed with 200 ul of HBSS/BSA. Culture supernatants containing hCD22Fc chimera were incubated in the wells for 2 h at room temperature. Wells were then washed and a mixture of IgM antibodies that recognize nitrophenyl groups (anti-NP antibodies) and 50 ul of varying concentrations of the BPC-Siaα2-6LN heterobifunctional ligand were added. The plates were allowed to bind for 30 min. […]
CD22Fc chimeras were immobilized onto microtiter plates and overlaid with mixtures of IgM anti-NP and NP or NP-BPC. Following washing, bound IgM complex was detected with HRP-conjugated anti-Ig antibodies. CD22-dependent binding of the complex was detected, with maximal IgM complex binding achieved when using less than 200 nM NP-BPC.

[3] = biological target: T5, CD22 on sialylated (native) BJAB cells (Homo sapiens, UniProt P20273); assay: Self-assembled IgM complex binding to sialylated BJAB cells; type: cell-based; conditions: high concentration of cis ligands
T5 construct: endogenous in cells; host or cells: BJAB cells (incl. K20 subclone)
T5 sequence (P20273 20-847): T3 sequence (P20273 20-847)

[4] = biological target: T6, CD22 on asialo K20 cells (BJAB subclone) (Homo sapiens, UniProt P20273); assay: Self-assembled IgM complex binding to asialo cells
T6 sequence (P20273 20-847): T3 sequence (P20273 20-847)
Method: Following washing, bound IgM was detected with FITC-labeled anti-Ig and read by flow cytometry. […] Free NP, the heterobifunctional ligand, and the IgM anti-NP were all added to BJAB cells and allowed to incubate on ice before washing. Bound IgM was detected as described for FIG. 5B. […] After binding of a self-assembled complex of NP-BPC and Alexa Fluor-labeled anti-NP IgM antibodies to BJAB cells on ice, the cells were washed and allowed to internalize the complex for the indicated period of time. After a brief acid wash to remove any surface IgM, internalized IgM was quantified by flow cytometry.
Cell Binding. BJAB cells, incubated with or without exogenous sialic acid (4 mM) for 2 days, were resuspended in HBSS/BSA at a density of 1×10^6 cells/ml and the varying amounts of IgM and the BPC-NP construct shown in FIG. 7 were added to the cells and allowed to bind for 1 hr on ice. Cells were then washed with 1 ml of HBSS/BSA and then incubated with FITC-labeled anti-IgM for 30 min on ice. After washing again, the cells were read by flow cytometry.
To further evaluate the ability for the IgM complex to bind to CD22 on B cells, cells deficient in cell-surface sialic acid were used.

Siglec 10 = assay: PAA probe binding to Siglec 10; conditions: result in words
Description: Building on the binding studies described above, polyacrylamide (PAA) probes containing the BPA-NeuGc-LN or BPC-NeuAc-LN sialosides were synthesized and tested for binding to CD22. […] Siglec 10 another B cell lectin, however, binds well to the NeuGc-LN glycan, but in contrast to CD22, only weakly to the high molecular weight BPA derivative.

BJAB cells = assay: Measurement of probe internalization; type: cell-based, human; conditions: caveolin inhibitor
Method: To generate the data shown in FIG. 5A, BJAB cells grown in the presence of sera and supplemented with NeuAc were incubated with the high molecular weight BPC-NeuAc-LN-PAA (light and heavy lines) or LN-PAA (Shaded) probes for 1.5 h on ice, followed by CyChrome labeled streptavidin for 45 min on ice. After washing, the cells were then incubated at 37° C. for the indicated period of time. Following this incubation, cells were washed with HBSS/BSA (shaded peak and heavy line) or RPMI pH 2.5 (light line). Bound or internalized probe was detected by flow cytometry. To generate the data shown in FIG. 5B, cells were washed with RPMI:Water (1/1) and then incubated for 1 hr in media with or without potassium. After pre-chilling on ice, cells were incubated in the corresponding media with the BPC-NeuAc-LN-PAA probe and then internalization was measured as above. Data are the average of two independent experiments.
Measurement of probe internalization. BJAB cells (2×10^6 cell/ml) were labeled with the PAA probe and streptavidin as above. Following staining, aliquots of 100 ul of the cell suspension were placed on ice or at 37° C. for selected periods of time. […]
Similarly, the ability for B cells to endocytose the PAA probes was determined. […] The remaining fluorescence as measured by flow cytometry as a measure of the amount of internalized probe.

T1 sequence (P20273 with tags, fused parts or gaps limits assumed): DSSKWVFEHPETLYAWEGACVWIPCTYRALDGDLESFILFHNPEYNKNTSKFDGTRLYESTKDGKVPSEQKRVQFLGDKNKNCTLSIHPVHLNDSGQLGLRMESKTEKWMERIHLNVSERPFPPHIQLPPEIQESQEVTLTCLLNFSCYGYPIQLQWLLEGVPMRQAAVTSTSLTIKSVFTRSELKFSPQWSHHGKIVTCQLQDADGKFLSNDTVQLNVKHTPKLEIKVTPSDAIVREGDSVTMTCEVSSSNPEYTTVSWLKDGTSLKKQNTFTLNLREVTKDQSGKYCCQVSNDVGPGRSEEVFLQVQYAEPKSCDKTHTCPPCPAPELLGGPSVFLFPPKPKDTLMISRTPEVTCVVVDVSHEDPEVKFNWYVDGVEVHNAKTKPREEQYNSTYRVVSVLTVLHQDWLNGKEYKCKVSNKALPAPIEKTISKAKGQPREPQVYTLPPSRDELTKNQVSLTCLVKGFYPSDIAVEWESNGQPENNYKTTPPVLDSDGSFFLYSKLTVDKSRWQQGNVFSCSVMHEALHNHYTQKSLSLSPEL
T2 sequence (P35329 with tags, fused parts or gaps limits assumed): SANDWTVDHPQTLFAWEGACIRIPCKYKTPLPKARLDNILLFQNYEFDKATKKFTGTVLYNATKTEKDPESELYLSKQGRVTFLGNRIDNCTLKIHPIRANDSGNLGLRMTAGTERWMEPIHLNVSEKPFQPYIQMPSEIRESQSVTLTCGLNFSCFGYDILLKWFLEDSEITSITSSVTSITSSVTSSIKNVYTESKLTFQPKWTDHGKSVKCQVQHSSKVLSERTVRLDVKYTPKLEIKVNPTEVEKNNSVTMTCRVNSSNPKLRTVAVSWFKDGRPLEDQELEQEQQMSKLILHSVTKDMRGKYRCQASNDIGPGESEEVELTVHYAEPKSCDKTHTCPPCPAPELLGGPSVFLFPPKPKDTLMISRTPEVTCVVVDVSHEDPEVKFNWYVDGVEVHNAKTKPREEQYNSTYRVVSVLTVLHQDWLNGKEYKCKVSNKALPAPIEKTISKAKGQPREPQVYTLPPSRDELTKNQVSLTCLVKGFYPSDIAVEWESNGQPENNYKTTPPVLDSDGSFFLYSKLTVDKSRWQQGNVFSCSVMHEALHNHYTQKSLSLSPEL
T4 sequence (P20273 with tags, fused parts or gaps limits assumed): as the sequence (P20273 with tags, fused parts or gaps limits assumed) above

| IC50 (human CD22) | rIP hCd22 (relative inhibitory potency) (human CD22) | IC50 (mouse CD22) | rIP mCd22 (relative inhibitory potency) (mouse CD22) | inhibition of NeuAc-LN-PAA probe binding [1] | inhibition of Siglec binding to immobilized sialoside (human CD22; result in words) | binding to Siglec 10 (Siglec 10) | Compound | concentration for maximal IgM complex binding [2] | binding to CD22 on sialylated BJAB cells [3] | concentration at maximal binding of the complex [4] | effect on probe internalization (BJAB cells) |
| --- | --- | --- | --- | --- | --- | --- | --- | --- | --- | --- | --- |
| 2 µM and 2.2 µM | 100 | 242 µM | 0.91 | complete inhibition |  |  | 9-biphenylcarbonyl (BPC)-Neu5Acα2-6Galβ1-4GlcNAc [BPC-NeuAcLN] |  |  |  |  |
| 35 µM | 6.3 | 1500 µM | 0.15 |  |  |  | CC(=O)NC1C(O)CC(O)(C(=O)O)OC1C(O)C(O)CNC(=O)c1ccc(-c2ccccc2)cc1 [BPC-NeuAc, 5-Acetamido-9-[(1,1′-biphenyl)-4-carboxamido]-3,5,9-trideoxy-D-glycero-D-galacto-2-nonulo-pyranosyl-onate] |  |  |  |  |
|  |  |  |  |  |  |  | CC(=O)N[C@H]1[C@H](OCCNC(=O)Cc2ccc(O)c([N+](=O)[O-])c2)O[C@H](CO)[C@@H](O[C@@H]2O[C@H](CO[C@]3(C(=O)O)C[C@H](O)[C@@H](NC(C)=O)[C@H]([C@H](O)[C@H](O)CNC(=O)c4ccc(-c5ccccc5)cc4)O3)[C@H](O)[C@H](O)[C@H]2O)[C@@H]1O [NP-BPC, [(4′-hydroxyl-3′-nitrophenylacetamido)-ethyl-β-]-[[5-Acetamido-9-[(1,1′-biphenyl)-4-carboxamido]-3,5,9,trideoxy-D-glycero-D-galacto-2-nonulo-pyranosyl-onate-α2-6-O-D-galactopyranosyl-β1-4]]-D-2-acetamido-2-deoxy-glucopyranoside] | less than 200 nM | bound efficiently | 0.16 µM |  |
| > 2000 µM | <0.1 | > 2000 µM | <0.1 |  | no inhibition |  | CC(=O)N[C@H]1[C@H]([C@H](O)[C@H](O)CO)OC(O)(C(=O)O)C[C@@H]1O (stereo partly drawn) [NeuAc, N-acetylneuraminic acid] |  |  |  |  |
| 200 µM and 220 µM | 1 | > 2000 µM | <0.1 |  |  |  | CC(=O)N[C@@H]1[C@@H](O)[C@H](O[C@@H]2O[C@H](CO[C@]3(C(=O)O)C[C@H](O)[C@@H](NC(C)=O)[C@H]([C@H](O)[C@H](O)CO)O3)[C@H](O)[C@H](O)[C@H]2O)[C@@H](CO)O[C@H]1O [NeuAc-LN, NeuAcα2-6Galβ1-4GlcNAc] |  |  |  |  |
| 260 µM | 0.85 | 221 µM | 1 |  |  | binds well | CC(=O)NC1C(O)OC(CO)C(OC2OC(COC3(C(=O)O)CC(O)C(NC(=O)CO)C(C(O)C(O)CO)O3)C(O)C(O)C2O)C1O (stereo not drawn) [NeuGc-LN, NeuGcα2,6Galβ1-4GlcNAc] |  |  |  |  |
|  |  |  |  |  |  |  | C[C@@H]1[C@H](O)[C@@H](C)/C=C/C=C/CC/C=C/C=C/C=C/C=C/C(O[C@H]2O[C@H](C)[C@@H](O)[C@H](N)[C@@H]2O)CC2O[C@](O)(CC(O)C(O)CCC(O)CC(O)CC(O)CC(=O)O[C@H]1C)CC(O)C2C(=O)O (stereo partly drawn) [nystatin] |  |  |  | did not inhibit |
